Calls of active or inactive are those of the source. The calls are words filed in the database; no cut-off is given here.
How the values were obtained:
[1] = system: Mus musculus; experiment: Anti-diabetic activity in 6 hrs-fasted db/db mouse assessed as reduction in blood glucose AUC (0 to 120 mins) at 10 mg/kg, po pretre at ed for 60 mins followed by glucose challenge and measured after 120 mins post glucose challenge by OGTT rel at ive to control
[2] = system: Mus musculus; experiment: Anti-diabetic activity in 6 h-fasted db/db mouse assessed as inhibition of DPP4 in plasma at 10 mg/kg, po administered as single dose pretreated for 60 mins followed by glucose challenge and measured after 120 mins post glucose challenge by OGTT; assay type: functional, organism-based
[3] = system: Mus musculus; experiment: Anti-diabetic activity in db/db mouse assessed as increase in glucose tolerance at 10 mg/kg, po dosed once weekly for 8 weeks by OGTT; assay type: functional, organism-based
[4] = system: Mus musculus; experiment: Anti-diabetic activity in db/db mouse assessed as increase in glucose-induced insulin secretion at 10 mg/kg, po dosed once weekly for 8 weeks pretreated for 60 mins followed by glucose challenge and measured after 120 mins post glucose challenge by OGTT relative to control; assay type: functional
[5] = system: Mus musculus; experiment: Anti-diabetic activity in db/db mouse assessed as reduction in fasting blood glucose at 10 mg/kg, po dosed once weekly for 8 weeks; assay type: functional; parameters: scale not given: the % may be the effect or the level left
[6] = system: Mus musculus; experiment: Anti-diabetic activity in db/db mouse assessed as HbA1c levels at 10 mg/kg, po dosed once weekly for 8 weeks; assay type: functional

## Cn1c(=O)cc(N2CCC[C@@H](N)C2)n(Cc2cc(F)ccc2C#N)c1=O [TRELAGLIPTIN]
[1]
  inhibition in vivo at 10 mg/kg: 19.3%
[2]
  inhibition: Active
[3]
  Activity: Active
[4]
  fold change (FC): 1.7
[5]
  Activity: 16.8%
[6]
  Activity: Active
